Tests used:
CYP2B15 [1] = assay: Real-time PCR of CYP2B15 expression in rat sebaceous gland (epidermal split) after topical PPARgamma agonist, kinetics; format: in vivo; details: topical 1% in acetone, female FUZZY rats, standardized to 18S, versus carrier group
Excerpt: • Strain: Ico:HSd:FUZZY-fz • Gender: female • Age: 10 weeks Number per batch: 40 (8 animals per group) Treatment: Route of administration: topical • Compound/batch: PPARgamma agonists: • A: 5-{4-[2-(methylpyridin-2-ylamino)ethoxy]benzyl}thiazolidine-2,4-dione • B: 2-(methoxyethoxymethoxy)naphthalene-2-carboxylic acid [4′-(2,4-dioxothiazolidin-5-ylmethyl)biphenyl-3-ylmethyl]methylamide or rosiglitazone • C: (S)-2-ethoxy-3-{4-[6-(3-heptyl-1-methylureido)pyridin-2-yl]phenyl}propionic acid • Doses: 1% • Carrier: acetone (001) • Duration: 96 hours Method of evaluation: The animals are weighed at the beginning and at the end of the study. Skin biopsies are taken (6 samples of skin excised per rat) in order to analyze the expression of the genes (RNA extraction, reverse transcriptase and real-time PCR). The samples are stored at 4° C. overnight before incubation in 1 M sodium bromide (NaBr) for 2 hours at 37° C. After incubation, the samples are separated into epidermis or dermis. The epidermal samples are stored at […] Under these conditions, the sebaceous glands are in the epidermal split. PCRs are carried out, beginning with the cDNAs originating from the epidermal splits containing sebaceous glands from control rats or rats treated with a PPARγ agonist: the mRNA is extracted using a column and quantified. The quality of the mRNAs is measured and is represented by the 18S/28S ratio. The results are standardized with respect to 18S, expressed as relative induction versus untreated animals (carrier group). The statistical analysis is obtained using internal software based on a modified Monte Carlo statistical analysis.

GPD1 [2] = assay: Real-time PCR of GPD1 expression in rat sebaceous gland (epidermal split) after topical PPARgamma agonist, kinetics; format: in vivo; details: topical 1% in acetone, female FUZZY rats, standardized to 18S, versus carrier group
Protocol: Skin biopsies are taken (6 samples of skin excised per rat) in order to analyze the expression of the genes (RNA extraction, reverse transcriptase and real-time PCR). The samples are stored at 4° C. overnight before incubation in 1 M sodium bromide (NaBr) for 2 hours at 37° C. After incubation, the samples are separated into epidermis or dermis. The epidermal samples are stored at 20° C. Under these conditions, the sebaceous glands are in the epidermal split. PCRs are carried out, beginning with the cDNAs originating from the epidermal splits containing sebaceous glands from control rats or rats treated with a PPARγ agonist: the mRNA is extracted using a column and quantified. The quality of the mRNAs is measured and is represented by the 18S/28S ratio. The results are standardized with respect to 18S, expressed as relative induction versus untreated animals (carrier group). The statistical analysis is obtained using internal software based on a modified Monte Carlo statistical analysis.

CYP2B15 [3] = assay: Affymetrix transcriptome measurement of CYP2B15 expression in Fuzzy rat epidermal split after 8 days of topical treatment; details: topical 1%
Protocol: The studies are carried out in female Fuzzy rats (Hsd: FUZZY-fz) 10 weeks old at the beginning of the study. The animals are treated at a dose of 1% (PPARg agonist Rosiglitazone in solution in acetone) once a day for 8 days. Two hours after the final treatment, the animals are sacrificed by euthanasia and the skin on the back is removed. After incubation in dispase, the epidermis carrying the sebaceous glands is detached from the dermis (epidermal split). After grinding of the samples, the mRNA is prepared using Qiagen columns, in accordance with the suppliers' instructions. The material thus prepared is subjected to large-scale transcriptome analysis on an Affymetrix platform. The data are subsequently standardized and, after statistical analysis, the results produced are expressed in arbitrary expression units (see below) accompanied, for each piece of data, by a statistical value for presence of the transcript (presence=1; absence=0).

GPD1 [4] = assay: Affymetrix transcriptome measurement of GPD1 expression in Fuzzy rat epidermal split after 8 days of topical treatment; format: in vivo; details: GPD1 mRNA (1371363_at), female FUZZY rats, topical 1%, once a day for 8 days, control condition 66

Q: Which CYP2B15 relative induction (CYP2B15 [1]; 0 hours) does the source give for `CCCCCCCNC(=O)N(C)c1cccc(-c2ccc(C[C@H](OCC)C(=O)O)cc2)n1` [C, (S)-2-ethoxy-3-{4-[6-(3-heptyl-1-methylureido)pyridin-2-yl]phenyl}propionic acid] here?
A: 1

Q: What about the CYP2B15 relative induction (CYP2B15 [1]; 8 hours) of the same compound?
A: 0.61

Q: And the CYP2B15 relative induction (CYP2B15 [1]; 24 hours)?
A: 0.18

Q: What about the CYP2B15 relative induction (CYP2B15 [1]; 48 hours) of the same compound?
A: 0.11

Q: And the CYP2B15 relative induction (CYP2B15 [1]; 96 hours)?
A: 0.04

Q: And the GPD1 relative induction (GPD1 [2]; 0 hours)?
A: 1

Q: And the GPD1 relative induction (GPD1 [2]; 8 hours)?
A: 7.59

Q: What about the GPD1 relative induction (GPD1 [2]; 24 hours) of the same compound?
A: 11.56

Q: And the GPD1 relative induction (GPD1 [2]; 48 hours)?
A: 7.50

Q: What about the GPD1 relative induction (GPD1 [2]; 96 hours) of the same compound?
A: 3.44

Q: `CN(CCOc1ccc(CC2SC(=O)NC2=O)cc1)c1ccccn1` (centres unmarked) [Rosiglitazone] was tested. Which “Expression after treatment with 1% Rosiglitazone” value (CYP2B15 [3]; CYP2B15 mRNA (1387722_at), female FUZZY rats, once a day for 8 days, control condition 120) did it give?
A: 35 arbitrary expression units

Q: What about the “Significance of the expression after treatment with 1% Rosiglitazone” value (CYP2B15 [3]; CYP2B15 transcript presence indicator, 8 days) of the same compound?
A: 1

Q: What about the “Expression after treatment with 1% Rosiglitazone” value (GPD1 [4]) of the same compound?
A: 243 arbitrary expression units

Q: Which CYP2B15 relative induction (CYP2B15 [1]; 0 hours) does the source give for `CN(CCOc1ccc(CC2SC(=O)NC2=O)cc1)c1ccccn1` (centres unmarked) [A, 5-{4-[2-(methylpyridin-2-ylamino)ethoxy]benzyl}thiazolidine-2,4-dione] here?
A: 1

Q: And the CYP2B15 relative induction (CYP2B15 [1]; 8 hours)?
A: 1.56

Q: And the CYP2B15 relative induction (CYP2B15 [1]; 24 hours)?
A: 0.68

Q: And the CYP2B15 relative induction (CYP2B15 [1]; 48 hours)?
A: 0.29

Q: What about the CYP2B15 relative induction (CYP2B15 [1]; 96 hours) of the same compound?
A: 0.08

Q: What about the GPD1 relative induction (GPD1 [2]; 0 hours) of the same compound?
A: 1

Q: What about the GPD1 relative induction (GPD1 [2]; 8 hours) of the same compound?
A: 18.52

Q: And the GPD1 relative induction (GPD1 [2]; 24 hours)?
A: 12.53

Q: What about the GPD1 relative induction (GPD1 [2]; 48 hours) of the same compound?
A: 6.93

Q: And the GPD1 relative induction (GPD1 [2]; 96 hours)?
A: 3.42

Source: patent US20110189686A1, “SCREENING FOR MODULATORS OF CYP2B15 AND/OR GPD1 FOR THE TREATMENT OF ACNE, OF SEBORRHOEIC DERMATITIS OR OF HYPERSEBORRHOEA” (Galderma Research & Development, priority 2008, published 2011)
